The record followed here is the supplement of paper PMC11061612.

Molecules are shown by their SMILES.

Holding throughout (assay): Bliss excess, mean over the matrix (fraction); higher = more synergy
One assay relates to KP-N-YN (Neuroblastoma). In outline: (§1)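 Bliss excess equals the observed combination effect minus the expected value EA + EB − EA·EB, where EA and EB are the effects of each agent alone. Combination Emax is the second-highest inhibition within the matrix. Inhibition was scaled from CellTiter-Glo 2.0 luminescence, with 0 set by vehicle wells and 1 by blank wells, after 72 hours of two-drug dosing of cells plated in 1536-well plates.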

In assay [1] the test system is MDA-MB-436 (Breast Carcinoma). In short, it runs like this: as §1
Assay [2] deals with HCC1395 (Breast Carcinoma). In outline: as §1
For assay [3], the system named is 22RV1 (Prostate Carcinoma). In short, it runs like this: as §1
The next assay deals with HCC70 (Breast Carcinoma). In outline: as §1
The next assay concerns IM-9 (Non-Cancerous). In short, it runs like this: as §1
In assay [4] the test system is SK-HEP-1 (Hepatocellular Carcinoma). In outline:
as §1

Another assay concerns EB2 (Burkitt's Lymphoma). In short, it runs like this:
as §1

Another assay deals with 769-P (Kidney Carcinoma). In outline: as §1

In the case of `C=CCn1c(=O)c2cnc(Nc3ccc(N4CCN(C)CC4)cc3)nc2n1-c1cccc(C(C)(C)O)n1` [AZD1775] + CCc1c2c(nc3ccc(O)cc13)-c1cc3c(c(=O)n1C2)COC(=O)[C@]3(O)CC [SN-38] (first compound max 1 µM, partner max 0.3 µM), the Bliss excess in the assay with KP-N-YN (Neuroblastoma) is -0.0339; in assay [1], -0.0545; in [2], -0.0322; in assay [3], -0.0464; with HCC70 (Breast Carcinoma) it was -0.0528; in the assay on IM-9 (Non-Cancerous), 0.0003. Moreover, the Bliss excess in [4] was -0.0134; with EB2 (Burkitt's Lymphoma), -0.0507; with 769-P (Kidney Carcinoma) it was -0.0084.

For the molecule `C=CCn1c(=O)c2cnc(Nc3ccc(N4CCN(C)CC4)cc3)nc2n1-c1cccc(C(C)(C)O)n1` [AZD1775] + Nc1ccn([C@@H]2O[C@H](CO)[C@@H](O)C2(F)F)c(=O)n1 [Gemcitabine] (first compound max 1 µM, partner max 0.3 µM), the Bliss excess in assay [1] is 0.0536; in [2] it was 0.0294; in assay [3] it was -0.0225; in the assay with HCC70 (Breast Carcinoma), -0.0232; in the assay on IM-9 (Non-Cancerous), 0.0398; in assay [4], -0.029. The Bliss excess in the assay with EB2 (Burkitt's Lymphoma) came out at 0.0066.

Regarding `CN(CCO)CC[C@H](CSc1ccccc1)Nc1ccc(S(=O)(=O)NC(=O)c2ccc(N3CCC([C@@H](O)c4ccccc4-c4ccc(Cl)cc4)CC3)cc2)cc1S(=O)(=O)C(F)(F)F` [AZD4320] + CS(=O)(=O)CCNCc1ccc(-c2ccc3ncnc(Nc4ccc(OCc5cccc(F)c5)c(Cl)c4)c3c2)o1 [Lapatinib] (first compound max 1 µM, 7x7, partner max 10 µM), the Bliss excess was 0.0811 in the assay with KP-N-YN (Neuroblastoma); -0.0333 in [1]; -0.0261 in assay [2]; -0.0394 in [3]; 0.0536 in the assay with HCC70 (Breast Carcinoma); 0.117 with IM-9 (Non-Cancerous). For the same molecule, the Bliss excess in assay [4] is -0.0958; in the assay with EB2 (Burkitt's Lymphoma), -0.104; in the assay with 769-P (Kidney Carcinoma), -0.0042.

`Cc1c2c(nn1C)CSCc1cc(n(C)n1)CSc1cc(c3ccccc3c1)OCCCc1c(C(=O)O)n(C)c3c-2c(Cl)ccc13` [AZD5991] + CC(=O)O[C@H]1C(=O)[C@@]2(C)[C@H]([C@H](OC(=O)c3ccccc3)[C@]3(O)C[C@H](OC(=O)[C@H](O)[C@@H](NC(=O)c4ccccc4)c4ccccc4)C(C)=C1C3(C)C)[C@]1(OC(C)=O)CO[C@@H]1C[C@@H]2O [Paclitaxel] (first compound max 1 µM, 7x7, partner max 3 µM): the Bliss excess was -0.0275 in the assay with KP-N-YN (Neuroblastoma); 0.0273 in assay [1]; 0.0501 in assay [2]; 0.0731 in assay [3]; 0.0649 in the assay on HCC70 (Breast Carcinoma); 0.0008 with IM-9 (Non-Cancerous). The Bliss excess in assay [4] was -0.0587; in the assay with EB2 (Burkitt's Lymphoma) it was -0.083; in the assay with 769-P (Kidney Carcinoma), -0.0044.

As for `Cc1c2c(nn1C)CSCc1cc(n(C)n1)CSc1cc(c3ccccc3c1)OCCCc1c(C(=O)O)n(C)c3c-2c(Cl)ccc13` [AZD5991] + CS(=O)(=O)CCNCc1ccc(-c2ccc3ncnc(Nc4ccc(OCc5cccc(F)c5)c(Cl)c4)c3c2)o1 [Lapatinib] (first compound max 1 µM, 7x7, partner max 10 µM), the Bliss excess was 0.0426 in the assay with KP-N-YN (Neuroblastoma); -0.0434 in assay [1]; -0.0227 in [2]; -0.0131 in assay [3]; 0.0603 with HCC70 (Breast Carcinoma); 0.0138 with IM-9 (Non-Cancerous). The Bliss excess is 0.0191 in assay [4], -0.0287 in the assay with EB2 (Burkitt's Lymphoma) and 0.0329 with 769-P (Kidney Carcinoma).

Consider `Cc1c2c(nn1C)CSCc1cc(n(C)n1)CSc1cc(c3ccccc3c1)OCCCc1c(C(=O)O)n(C)c3c-2c(Cl)ccc13` [AZD5991] + Nc1ccn([C@@H]2O[C@H](CO)[C@@H](O)C2(F)F)c(=O)n1 [Gemcitabine] (first compound max 1 µM, 7x7, partner max 0.3 µM), for which the Bliss excess was -0.06 in assay [1]; -0.0262 in assay [2]; -0.02 in [3]; 0.0365 with HCC70 (Breast Carcinoma); -0.0364 with IM-9 (Non-Cancerous); -0.109 in assay [4]. The Bliss excess was -0.0405 in the assay on EB2 (Burkitt's Lymphoma) and -0.0637 with 769-P (Kidney Carcinoma).

On to `C[C@@H]1COCCN1c1cc(C2([S@](C)(=N)=O)CC2)nc(-c2ccnc3[nH]ccc23)n1` [AZD6738] + C1CC(C1)(C(=O)[O-])C(=O)[O-].N.N.[Pt+2] [Carboplatin] (first compound max 10 µM, 7x7, partner max 10 µM), for which the Bliss excess in the assay on KP-N-YN (Neuroblastoma) is -0.0177; in [1], -0.0038; in assay [2] it was -0.0573; in assay [3], -0.0138; in the assay on HCC70 (Breast Carcinoma) it was -0.0305; in the assay with IM-9 (Non-Cancerous), 0.0081. Further, the Bliss excess in assay [4] is -0.0469; in the assay on EB2 (Burkitt's Lymphoma) it was -0.0316; in the assay with 769-P (Kidney Carcinoma), -0.0233.

Consider `C[C@@H]1COCCN1c1cc(C2([S@](C)(=N)=O)CC2)nc(-c2ccnc3[nH]ccc23)n1` [AZD6738] + Nc1ccn([C@@H]2O[C@H](CO)[C@@H](O)C2(F)F)c(=O)n1 [Gemcitabine] (first compound max 10 µM, 7x7, partner max 0.3 µM), for which the Bliss excess in assay [1] was 0.0544; in [2] it was 0.0334; in assay [3] it was -0.0011; in the assay on HCC70 (Breast Carcinoma) it was 0.0904; in the assay on IM-9 (Non-Cancerous), -0.0189; in [4] it was 0.0557. Further, the Bliss excess in the assay with EB2 (Burkitt's Lymphoma) was 0.0068; with 769-P (Kidney Carcinoma) it was -0.0475.

With `C[C@@H](Nc1cc(F)cc(F)c1)c1cc(C(=O)N(C)C)cc2c(=O)cc(N3CCOCC3)oc12` [AZD8186] + C1CN(CCC1(C(=O)N[C@@H](CCO)C2=CC=C(C=C2)Cl)N)C3=NC=NC4=C3C=CN4 [AZD5363] (first compound max 10 µM, 7x7, partner max 10 µM), the Bliss excess with KP-N-YN (Neuroblastoma) is -0.0765; in assay [1], -0.0162; in assay [2], 0.0007; in assay [3], -0.0401; with HCC70 (Breast Carcinoma), -0.0152; with IM-9 (Non-Cancerous) it was 0.0493. In addition, the Bliss excess in assay [4] is -0.0291; in the assay on EB2 (Burkitt's Lymphoma), -0.0292; in the assay on 769-P (Kidney Carcinoma), -0.0459.
